From US9309242B2, “Substituted pyrido[2,3-b]pyrazines as FGFR kinase inhibitors” (priority 2011, dated 2016)
Structures can show the parent of a compound that is named as a salt.

Tests used:
[1] = molecular target: FGFR3 (h) (Homo sapiens, UniProt P22607); experiment: FGFR3 (enzymatic assay), TR-FRET; format: biochemical; settings: read-out: FGFR 3 pIC50 (converted)
Excerpt: Time-Resolved Fluorescence Resonance Energy Transfer (TR-FRET) signal (ex340 nm.

[2] = tested on: Ba/F3-KDR-transfected cells; experiment: Ba/F3-KDR (plus IL3) cellular proliferation assay, counterscreen with 10 ng/ml murine IL3; format: cell-based; settings: for IC50: read-out: BAF3-KDR (PLUS IL3) pIC50 (converted)
Outline: (§1)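 Ba/F3-KDR cells (20000 per well) in phenol red-free RPMI-1640 with 10% FBS were exposed to compound for 24 hours at 37° C, 5% CO2. Alamar Blue (resazurin) was then added for 4 hours, and fluorescence was read at ex. 540 nm/em. 590 nm.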

[3] = molecular target: FGFR4 (h) (Homo sapiens, UniProt P22455); experiment: FGFR4 (enzymatic assay), TR-FRET; format: biochemical; settings: FGFR 4 pIC50, enzymatic assay
[4] = tested on: Ba/F3-FGFR1-transfected cells; experiment: Ba/F3-FGFR1 (plus IL3) cellular proliferation assay, counterscreen with 10 ng/ml murine IL3; format: cell-based; settings: for IC50: read-out: BAF3-FGFR1 (PLUS IL3) pIC50 (converted)
Outline: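 Ba/F3-FGFR1 cells (20000/well) in RPMI-1640 with 10% FBS exposed to compound for 24 h at 37° C., 5% CO2, then Alamar Blue (resazurin) added for 4 h; fluorescence read at ex 540/em 590 nm. Counterscreen run identically with 10 ng/ml murine IL3.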

[5] = molecular target: KDR (h) (Homo sapiens, UniProt P35968); experiment: KDR (VEGFR2) (enzymatic assay), TR-FRET; format: biochemical; settings: read-out: VEGFR 2 (KDR) pIC50 (converted)
Outline: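 Enzyme at 150 ng/ml was incubated 120 min at room temperature with 500 nM Btn-Flt3 peptide and 3 μM ATP in 50 mM HEPES pH 7.5, 6 mM MnCl2, 1 mM DTT, 0.1 mM Na3VO4, 0.01% Triton-X-100, 1% DMSO final. EDTA stop with Eu-anti-P-Tyr/SA-XL-665, 60 min; TR-FRET read in RFU.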

[6] = molecular target: FGFR1 (h) (Homo sapiens, UniProt P11362); experiment: FGFR1 (enzymatic assay), TR-FRET; format: biochemical; settings: read-out: FGFR 1 pIC50 (converted)
[7] = molecular target: T1, Ba/F3-FGFR3-transfected cells (Homo sapiens, UniProt P22607); experiment: Ba/F3-FGFR3 (minus IL3) cellular proliferation assay, Alamar Blue; format: cell-based
T1 construct: BAF3-FGFR3 (MIN IL3) pIC50; other: minus IL3
Outline: (§2)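 Ba/F3 cells transfected with FGFR3, 20000/well in phenol red-free RPMI-1640 with 10% FBS, exposed to compound for 24 h at 37 °C, 5% CO2. Alamar Blue (resazurin) added for 4 h more; fluorescence read at ex 540/em 590 nm. Counterscreen run the same way with 10 ng/ml murine IL3.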

[8] = tested on: Ba/F3-FGFR3-transfected cells; experiment: Ba/F3-FGFR3 (plus IL3) cellular proliferation assay, counterscreen with 10 ng/ml murine IL3; format: cell-based; settings: for IC50: read-out: BAF3-FGFR3 (PLUS IL3) pIC50 (converted)
Outline: as §2

[9] = molecular target: T2, Ba/F3-FGFR1-transfected cells (Homo sapiens, UniProt P11362); experiment: Ba/F3-FGFR1 (minus IL3) cellular proliferation assay, Alamar Blue; format: cell-based
T2 construct: BAF3-FGFR1 (MIN IL3) pIC50; other: minus IL3
Outline: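 Ba/F3-FGFR1 cells (20000 per well) were exposed to compound for 24 h at 37 °C in RPMI-1640 with 10% FBS. Alamar Blue (resazurin) was then added for 4 h, and fluorescence was read at ex 540/em 590 nm.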

[10] = molecular target: FGFR2 (h) (Homo sapiens, UniProt P21802); experiment: FGFR2 (enzymatic assay), TR-FRET; format: biochemical; settings: enzymatic assay; read-out: FGFR 2 pIC50 (converted)
Outline: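 Human FGFR2 (150 ng/ml) was incubated with 500 nM Btn-Flt3 substrate and 0.4 μM ATP in 50 mM HEPES pH 7.5, 6 mM MnCl2, 1 mM DTT, 0.1 mM Na3VO4, 0.01% Triton-X-100. Compound was present at 1% DMSO final.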

[11] = molecular target: T3, Ba/F3-KDR-transfected cells (Homo sapiens, UniProt P35968); experiment: Ba/F3-KDR (minus IL3) cellular proliferation assay, Alamar Blue; format: cell-based
T3 construct: BAF3-KDR (MIN IL3) pIC50; other: minus IL3
Outline: as §1

[12] = molecular target: Ba/F3-FGFR4-transfected cells (Homo sapiens, UniProt P22455); experiment: Ba/F3-FGFR4 cellular proliferation assay, Alamar Blue; format: cell-based
Outline: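 Compounds in DMSO were dispensed before 20000 Ba/F3-FGFR4-transfected cells per well were added in phenol red free RPMI-1640 with 10% FBS, 2 mM L-Glutamine. After 24 hours at 37° C and 5% CO2, Alamar Blue was added for 4 hours and fluorescence read (ex. 540 nm, em. 590 nm).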

[13] = plus IL3 (10 ng/ml murine IL3, counterscreen)

T3 sequence (P35968 whole entry, change not shown): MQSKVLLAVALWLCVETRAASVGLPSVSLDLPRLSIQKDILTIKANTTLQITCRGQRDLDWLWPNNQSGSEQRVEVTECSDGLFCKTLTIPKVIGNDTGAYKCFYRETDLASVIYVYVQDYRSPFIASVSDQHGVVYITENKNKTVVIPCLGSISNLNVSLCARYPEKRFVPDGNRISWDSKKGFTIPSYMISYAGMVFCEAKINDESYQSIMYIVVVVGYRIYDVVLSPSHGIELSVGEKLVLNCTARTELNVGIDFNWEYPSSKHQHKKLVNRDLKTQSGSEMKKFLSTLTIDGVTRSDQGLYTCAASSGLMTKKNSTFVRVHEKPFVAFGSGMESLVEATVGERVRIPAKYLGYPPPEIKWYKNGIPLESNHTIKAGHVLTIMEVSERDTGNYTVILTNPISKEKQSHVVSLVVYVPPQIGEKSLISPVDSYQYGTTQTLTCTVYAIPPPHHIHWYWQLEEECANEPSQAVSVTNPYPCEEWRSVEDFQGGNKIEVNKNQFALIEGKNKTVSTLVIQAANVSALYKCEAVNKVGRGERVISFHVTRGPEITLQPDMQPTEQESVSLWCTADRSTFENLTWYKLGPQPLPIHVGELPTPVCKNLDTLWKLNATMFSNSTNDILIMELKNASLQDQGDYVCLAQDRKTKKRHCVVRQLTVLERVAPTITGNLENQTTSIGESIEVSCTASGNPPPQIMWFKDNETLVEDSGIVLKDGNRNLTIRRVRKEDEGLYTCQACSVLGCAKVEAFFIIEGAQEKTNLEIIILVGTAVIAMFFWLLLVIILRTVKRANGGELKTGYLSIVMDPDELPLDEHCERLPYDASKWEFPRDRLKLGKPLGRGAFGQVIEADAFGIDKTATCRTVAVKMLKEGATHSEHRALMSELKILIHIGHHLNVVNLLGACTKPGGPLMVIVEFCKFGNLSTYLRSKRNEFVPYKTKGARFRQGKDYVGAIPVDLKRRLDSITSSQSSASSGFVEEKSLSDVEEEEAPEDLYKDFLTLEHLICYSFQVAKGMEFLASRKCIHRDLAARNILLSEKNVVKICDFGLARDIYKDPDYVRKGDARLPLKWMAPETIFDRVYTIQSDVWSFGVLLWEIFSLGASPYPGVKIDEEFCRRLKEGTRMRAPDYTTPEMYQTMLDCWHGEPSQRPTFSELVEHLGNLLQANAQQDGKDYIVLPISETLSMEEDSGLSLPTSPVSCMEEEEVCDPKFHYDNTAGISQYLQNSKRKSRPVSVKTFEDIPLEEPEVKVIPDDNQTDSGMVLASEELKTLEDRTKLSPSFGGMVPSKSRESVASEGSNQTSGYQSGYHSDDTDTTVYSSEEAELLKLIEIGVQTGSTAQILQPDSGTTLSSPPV
FGFR3 (h), sequence (P22607 23-806): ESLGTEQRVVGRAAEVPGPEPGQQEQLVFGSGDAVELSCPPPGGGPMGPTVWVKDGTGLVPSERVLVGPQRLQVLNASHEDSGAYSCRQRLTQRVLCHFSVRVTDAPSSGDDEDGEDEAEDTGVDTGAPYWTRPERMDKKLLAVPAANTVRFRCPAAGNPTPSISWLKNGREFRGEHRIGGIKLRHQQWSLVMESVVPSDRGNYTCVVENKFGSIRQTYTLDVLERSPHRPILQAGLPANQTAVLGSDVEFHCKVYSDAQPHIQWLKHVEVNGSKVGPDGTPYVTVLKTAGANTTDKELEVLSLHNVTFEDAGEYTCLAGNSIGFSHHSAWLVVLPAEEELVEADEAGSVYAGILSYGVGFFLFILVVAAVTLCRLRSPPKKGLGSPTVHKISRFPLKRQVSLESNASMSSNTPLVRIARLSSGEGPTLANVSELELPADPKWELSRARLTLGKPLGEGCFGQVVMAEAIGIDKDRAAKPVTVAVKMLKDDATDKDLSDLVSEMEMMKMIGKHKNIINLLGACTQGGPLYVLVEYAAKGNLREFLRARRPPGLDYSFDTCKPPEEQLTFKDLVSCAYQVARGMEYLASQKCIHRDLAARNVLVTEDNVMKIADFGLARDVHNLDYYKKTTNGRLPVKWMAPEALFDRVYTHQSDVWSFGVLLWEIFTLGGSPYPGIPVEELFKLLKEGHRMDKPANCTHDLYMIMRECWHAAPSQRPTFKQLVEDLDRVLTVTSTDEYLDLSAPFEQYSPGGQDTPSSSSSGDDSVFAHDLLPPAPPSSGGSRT
FGFR1 (h), sequence (P11362 22-822): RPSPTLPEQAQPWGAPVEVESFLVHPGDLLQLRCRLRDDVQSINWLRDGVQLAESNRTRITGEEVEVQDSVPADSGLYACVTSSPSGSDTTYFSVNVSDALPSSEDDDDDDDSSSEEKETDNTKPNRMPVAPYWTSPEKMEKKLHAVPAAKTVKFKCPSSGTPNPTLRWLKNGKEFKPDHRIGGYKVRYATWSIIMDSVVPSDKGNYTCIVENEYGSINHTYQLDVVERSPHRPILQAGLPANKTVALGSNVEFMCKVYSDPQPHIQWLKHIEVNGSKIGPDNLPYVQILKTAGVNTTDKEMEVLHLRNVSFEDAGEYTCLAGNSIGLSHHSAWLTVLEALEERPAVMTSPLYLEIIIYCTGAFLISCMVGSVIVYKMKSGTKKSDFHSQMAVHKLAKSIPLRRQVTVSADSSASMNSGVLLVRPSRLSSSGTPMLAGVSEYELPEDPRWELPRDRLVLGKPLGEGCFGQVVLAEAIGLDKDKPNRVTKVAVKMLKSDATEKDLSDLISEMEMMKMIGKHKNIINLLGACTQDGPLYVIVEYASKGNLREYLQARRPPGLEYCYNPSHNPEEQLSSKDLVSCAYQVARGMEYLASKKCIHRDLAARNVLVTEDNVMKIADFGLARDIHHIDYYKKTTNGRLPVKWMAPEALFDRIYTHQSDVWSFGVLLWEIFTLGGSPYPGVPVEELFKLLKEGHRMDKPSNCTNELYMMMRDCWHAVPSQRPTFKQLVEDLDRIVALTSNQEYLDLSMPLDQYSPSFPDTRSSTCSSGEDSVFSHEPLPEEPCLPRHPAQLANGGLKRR
T1 sequence (P22607 whole entry, change not shown): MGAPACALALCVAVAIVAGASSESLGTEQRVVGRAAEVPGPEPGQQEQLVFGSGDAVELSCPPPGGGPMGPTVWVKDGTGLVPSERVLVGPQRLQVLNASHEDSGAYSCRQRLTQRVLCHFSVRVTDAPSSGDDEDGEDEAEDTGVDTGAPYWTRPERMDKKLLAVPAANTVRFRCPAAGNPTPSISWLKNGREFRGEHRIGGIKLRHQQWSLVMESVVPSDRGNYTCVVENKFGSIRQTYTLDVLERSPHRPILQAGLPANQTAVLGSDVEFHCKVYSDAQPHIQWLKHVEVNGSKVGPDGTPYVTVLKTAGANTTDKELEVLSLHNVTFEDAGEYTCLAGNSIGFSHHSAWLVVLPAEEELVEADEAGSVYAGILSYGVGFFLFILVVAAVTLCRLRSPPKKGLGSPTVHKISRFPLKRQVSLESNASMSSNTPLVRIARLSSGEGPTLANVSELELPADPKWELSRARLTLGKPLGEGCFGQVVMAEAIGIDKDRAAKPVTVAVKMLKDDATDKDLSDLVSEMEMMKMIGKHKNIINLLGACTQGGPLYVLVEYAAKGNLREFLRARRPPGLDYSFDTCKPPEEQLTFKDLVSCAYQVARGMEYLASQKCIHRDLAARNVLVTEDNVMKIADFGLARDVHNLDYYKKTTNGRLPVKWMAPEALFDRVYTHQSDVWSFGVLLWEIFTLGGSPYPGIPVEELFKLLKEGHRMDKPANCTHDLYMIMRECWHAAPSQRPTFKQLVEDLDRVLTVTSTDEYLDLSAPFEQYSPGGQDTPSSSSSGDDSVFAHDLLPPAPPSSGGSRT
KDR (h), sequence (P35968 20-1356): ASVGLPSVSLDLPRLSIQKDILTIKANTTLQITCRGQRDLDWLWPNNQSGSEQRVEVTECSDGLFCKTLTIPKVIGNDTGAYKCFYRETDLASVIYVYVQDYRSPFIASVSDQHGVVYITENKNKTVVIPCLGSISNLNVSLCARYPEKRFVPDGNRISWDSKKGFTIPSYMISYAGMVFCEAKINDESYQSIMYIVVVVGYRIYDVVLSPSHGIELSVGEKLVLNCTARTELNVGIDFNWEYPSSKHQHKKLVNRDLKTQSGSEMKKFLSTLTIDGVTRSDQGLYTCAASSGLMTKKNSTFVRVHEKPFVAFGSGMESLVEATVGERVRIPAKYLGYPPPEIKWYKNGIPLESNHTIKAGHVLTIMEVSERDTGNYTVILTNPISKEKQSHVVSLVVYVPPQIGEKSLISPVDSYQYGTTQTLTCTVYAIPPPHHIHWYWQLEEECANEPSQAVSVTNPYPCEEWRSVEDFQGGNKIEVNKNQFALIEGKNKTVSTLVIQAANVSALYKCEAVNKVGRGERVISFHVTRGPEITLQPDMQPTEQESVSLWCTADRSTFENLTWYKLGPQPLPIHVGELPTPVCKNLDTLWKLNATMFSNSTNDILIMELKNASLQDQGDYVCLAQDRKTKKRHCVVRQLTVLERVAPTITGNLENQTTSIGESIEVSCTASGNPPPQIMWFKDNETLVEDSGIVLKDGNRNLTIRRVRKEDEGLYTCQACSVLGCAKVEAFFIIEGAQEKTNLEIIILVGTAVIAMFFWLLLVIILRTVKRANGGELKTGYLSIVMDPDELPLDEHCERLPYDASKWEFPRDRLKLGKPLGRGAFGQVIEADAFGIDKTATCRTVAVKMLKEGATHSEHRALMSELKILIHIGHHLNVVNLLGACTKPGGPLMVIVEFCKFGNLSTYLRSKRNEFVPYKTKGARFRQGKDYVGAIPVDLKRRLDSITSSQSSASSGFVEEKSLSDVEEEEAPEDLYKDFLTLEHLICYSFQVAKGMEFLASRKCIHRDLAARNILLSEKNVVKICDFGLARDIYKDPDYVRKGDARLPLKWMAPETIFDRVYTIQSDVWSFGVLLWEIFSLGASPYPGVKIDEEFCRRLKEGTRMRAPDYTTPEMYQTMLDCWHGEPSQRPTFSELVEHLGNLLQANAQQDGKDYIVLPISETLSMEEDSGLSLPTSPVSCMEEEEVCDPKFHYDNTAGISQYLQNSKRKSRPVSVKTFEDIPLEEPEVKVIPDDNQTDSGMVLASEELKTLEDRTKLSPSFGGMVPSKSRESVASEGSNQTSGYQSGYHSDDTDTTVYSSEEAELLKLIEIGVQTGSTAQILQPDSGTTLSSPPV

Structure (SMILES) | melting point | IC50 [1] | BAF3-KDR (PLUS IL3) pIC50 [2, 13] | IC50 [3] | BAF3-FGFR1 (PLUS IL3) pIC50 [4, 13] | IC50 [5] | IC50 [6] | BAF3-FGFR3 (MIN IL3) pIC50 [7] | BAF3-FGFR3 (PLUS IL3) pIC50 [8, 13] | BAF3-FGFR1 (MIN IL3) pIC50 [9] | IC50 [10] | BAF3-KDR (MIN IL3) pIC50 [11] | BAF3-FGFR4 pIC50 [12] | IC50 [2] | IC50 [4] | IC50 [8]
COc1cc(/N=c2\ccc3ncc(-c4cnn(C)c4)nc3n2CC2CCCCO2)cc(OC)c1 (stereo not shown) | 210 °C |  |  |  |  |  |  |  |  |  |  |  |  |  |  | 
COc1cc(OC)c(F)c(N(Cc2ncn(C3CNC3)n2)c2ccc3ncc(-c4cnn(C)c4)nc3n2)c1 | 126 °C |  |  |  |  |  |  |  |  |  |  |  |  |  |  | 
CNCCN(c1ccc2ncc(-c3cn[nH]c3)nc2n1)c1c(F)c(OC)cc(OC)c1F (as salt: HCl) (hydrate or solvate) [Compound 106] | 250 °C |  |  |  |  |  |  |  |  |  |  |  |  |  |  | 
COc1cc(/N=c2\ccc3ncc(-c4cnn(C)c4)nc3n2Cc2cc[nH]n2)c(F)c(OC)c1 (as salt: HCl) (hydrate or solvate) [Compound 115] | 130 °C |  |  |  |  |  |  |  |  |  |  |  |  |  |  | 
COc1cc(OC)c(F)c(N(Cc2ncc[nH]2)c2ccc3ncc(-c4cnn(C)c4)nc3n2)c1 (as salt: fumarate) [Compound 23] | 186 °C |  |  |  |  |  |  |  |  |  |  |  |  |  |  | 
COc1cc(OC)cc(N(Cc2ncc[nH]2)c2ccc3ncc(-c4cnn(C)c4)nc3n2)c1 (as salt: fumarate) [Compound 24] | 222 °C |  |  |  |  |  |  |  |  |  |  |  |  |  |  | 
COc1cc(OC)c(F)c(N(Cc2ncc[nH]2)c2ccc3ncc(-c4cnn(C)c4)nc3n2)c1 (as salt: hydrochloric acid salt) [Compound 23] | 216 °C |  |  |  |  |  |  |  |  |  |  |  |  |  |  | 
COc1cc(OC)c(F)c(N(CC2CCC(=O)N2C)c2ccc3ncc(-c4cnn(C)c4)nc3n2)c1 (stereo not shown) [Compound 161] |  | 6.92 nM | <5 | 37.2 nM | <5 | 126 nM | 20 nM | 6.08 | <5 | 6.26 | 10 nM | <5 | 5.78 |  |  | 
COc1cc(OC)c(F)c(N(CCS(C)(=O)=O)c2ccc3ncc(-c4cnn(C)c4)nc3n2)c1 [Compound 226] |  | 1.12 nM |  | 3.02 nM |  | 26.3 nM | 0.912 nM | ~7.54 |  | 7.32 | 2.19 nM | 5.92 | 6.60 | > 10000 nM | > 10000 nM | > 10000 nM
COc1cc(OC)c(F)c(N(CC(N)=O)c2ccc3ncc(-c4cnn(C)c4)nc3n2)c1 [Compound 239] |  | 5.25 nM |  | 35.5 nM |  | 148 nM | 5.37 nM | 6.51 |  | 6.44 | 7.94 nM | 5.27 | 5.87 | > 10000 nM | > 10000 nM | > 10000 nM
COc1cc(/N=c2\ccc3ncc(-c4cnn(C)c4)nc3n2CCNC(C)=O)c(F)c(OC)c1 [Compound 243] |  | 1.32 nM |  | 1.95 nM |  | 15.1 nM | 0.977 nM | ~8.13 |  | 7.85 | 1.62 nM | 6.00 | 7.14 | > 10000 nM | > 10000 nM | > 10000 nM
CCN(c1ccc2ncc(-c3cnn(C)c3)nc2n1)c1c(F)c(OC)cc(OC)c1F [Compound 256] |  | 0.708 nM |  | 1.02 nM |  | 8.71 nM | 0.49 nM | 8.16 |  | 8.05 | 1.66 nM | 6.16 | 7.36 | > 10000 nM | > 10000 nM | > 10000 nM
COc1cc(OC)c(F)c(N(Cc2nnc(NCCO)o2)c2ccc3ncc(-c4cnn(C)c4)nc3n2)c1 [Compound 283] |  | 5.13 nM |  | 21.4 nM |  | 105 nM | ~7.08 nM | 5.26 |  | 5.18 | 5.13 nM | <5 | <5 | > 10000 nM | > 10000 nM | > 10000 nM
